PubChem BioAssay (NCI)
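Values below derive from 48-hour exposures of cells grown in 96-well plates, with endpoints linearly interpolated between the two concentrations bracketing the appropriate inhibition level. The concentration for 50% growth inhibition is given as GI50. TGI is the concentration that stops growth completely.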

How the values were obtained:
Test in all cases: growth of human tumour cells (NCI), 48 h
M14 melanoma = tested on: M14 melanoma
SN12C renal = tested on: SN12C renal
NCI-H460 lung = tested on: NCI-H460 lung
786-0 renal = tested on: 786-0 renal
LOX IMVI melanoma = tested on: LOX IMVI melanoma
HCC-2998 colon = tested on: HCC-2998 colon
SK-MEL-5 melanoma = tested on: SK-MEL-5 melanoma
A549 NSCLC = tested on: A549 NSCLC
NCI-H522 lung = tested on: NCI-H522 lung
CCRF-CEM leukemia = tested on: CCRF-CEM leukemia

SMILES | GI50 (M14 melanoma) [µM] | TGI (M14 melanoma) [µM] | GI50 (SN12C renal) [µM] | TGI (SN12C renal) [µM] | GI50 (NCI-H460 lung) [µM] | TGI (NCI-H460 lung) [µM] | GI50 (786-0 renal) [µM] | TGI (786-0 renal) [µM] | GI50 (LOX IMVI melanoma) [µM] | TGI (LOX IMVI melanoma) [µM] | GI50 (HCC-2998 colon) [µM] | TGI (HCC-2998 colon) [µM] | GI50 (SK-MEL-5 melanoma) [µM] | TGI (SK-MEL-5 melanoma) [µM] | TGI (A549 NSCLC) [µM] | TGI (NCI-H522 lung) [µM] | TGI (CCRF-CEM leukemia) [µM] | GI50 (A549 NSCLC) [µM] | GI50 (NCI-H522 lung) [µM] | GI50 (CCRF-CEM leukemia) [µM]
C[C@H]1[C@H](C)CC[C@]2(C(=O)NCCNCCN)CC[C@]3(C)C(=CC[C@@H]4[C@@]5(C)CCC(=O)C(C)(C)[C@@H]5CC[C@]43C)[C@H]12 | 1.79 | 3.41 | 1.61 | 2.98 | 1.77 | 3.28 | 1.74 | 3.18 | 1.71 | 3.13 | 1.66 | 3.07 | 1.8 | 3.23 |  |  |  |  |  | 
OC(c1ccc(Br)cc1)(c1cccs1)C1CC1 (stereo not given) |  | 45.3 |  |  |  | 57.8 |  | 36 |  | 42.4 |  | 55.6 |  | 33 | > 100 | 40.9 | 91.8 |  |  | 
CC1(Cc2ccccc2)NC(=S)NC1=O (stereo not given) |  | > 100 |  | > 100 |  | > 100 |  | > 100 |  | > 100 |  | > 100 |  |  | > 100 | > 100 |  |  |  | 
O=c1ncccn1C1C=C(CO)C(O)C1O (stereo not given) |  | > 50 |  |  |  | > 50 |  | > 50 |  | > 50 |  | > 50 |  | > 50 | > 50 | > 50 | > 50 |  |  | 
C=CCO/N=C/c1cc(NC(=S)c2ccoc2C)ccc1Cl |  | 37.9 |  | 30.3 |  |  |  | > 100 |  | 44.5 |  | 24 |  | 27.6 | > 100 | 23.7 | > 100 |  |  | 
CCSc1nc(N)c2cn[nH]c2n1 | 33.8 | > 100 | 28.7 | 70.9 | 35.1 | > 100 | 40.2 | > 100 | 30.9 | > 100 |  |  | 18.5 | 43.6 | > 100 | > 100 |  | 44.6 | 62 | 
CCOC(=O)C(=O)Nc1ccccc1C(F)(F)F |  | > 100 |  | > 100 |  | > 100 |  | > 100 |  | > 100 |  | > 100 |  |  | > 100 |  |  |  |  | 
O=c1c(Cl)c(Cl)cnn1CCc1ccncc1 |  | 30.7 |  | 33.6 |  | 37.8 |  | 59.6 |  | 33.7 |  | 27.9 |  | 30.4 | > 100 |  | 88.8 |  |  | 
COc1ccc(-c2nnc(N3CCN(C(=O)CN4CCN(c5ccc(OC)cc5)CC4)CC3)nc2-c2ccc(OC)cc2)cc1 | 2.6 | 6.28 | 3.2 | 15.5 | 15.4 | > 62.3 | 15.3 | 40.6 |  |  | 18.8 | 47.2 | 2.4 | 6.83 | > 100 | 9.25 | 6.06 | 25.6 | 3.32 | 3.02
CC/C(=N\NS(=O)(=O)c1ccccc1)c1ccccc1 |  | > 100 |  | > 100 |  | > 100 |  | > 100 |  | > 100 |  | > 100 |  | > 100 | > 100 |  | > 100 |  |  | 
Cn1c(/C(C#N)=C/c2ccc3ccccc3c2)cc2ccccc21 | 0.104 | > 100 | 0.389 | > 100 | 0.201 | > 100 | 0.424 | > 100 | 0.12 | > 100 | 0.324 | > 100 | 0.455 | > 100 | > 100 |  | > 100 | 0.247 |  | 0.267
C=CCSc1nc2ccccc2c(=O)n1Cc1ccco1 |  | > 100 |  | > 100 |  | > 100 |  | > 100 |  | > 100 |  | > 100 |  | > 100 | > 100 | > 100 |  |  |  | 
C#CCC(N)(CO)C(=O)O (stereo not given) |  | > 100 |  |  |  | > 100 |  | > 100 |  | > 100 |  | > 100 |  | > 100 | > 100 | > 100 |  |  |  | 
NC(=O)/C=C/C(=O)O |  | > 5000 |  | > 5000 |  | > 5000 |  | > 5000 |  | > 5000 |  |  |  | > 5000 | > 5000 | > 5000 | > 5000 |  |  | 
CC1(C)OC2COC3(CNO)OC(C)(C)OC3C2O1 (stereo not given) |  | > 100 |  | > 100 |  | > 100 |  | > 100 |  | > 100 |  | > 100 |  | > 100 | > 100 |  | > 100 |  |  | 
C=CCC1[C@@H](C(C)(C)C(C(C)=O)C(=O)C(=O)OC)OC(C(C)(C)C)N1C(=O)OC (stereo not given in full) |  | > 100 |  | > 100 |  | > 100 |  | > 100 |  |  |  | > 100 |  | > 100 | > 100 | > 100 | > 100 |  |  | 
COc1cc2cnc3c4ccccc4ccc3c2cc1OC |  | > 100 |  | > 100 |  | > 100 |  | > 100 |  |  |  | > 100 |  | > 100 | > 100 | > 100 | > 100 |  |  | 
CC(=O)N[C@H](C(=O)N[C@@H](CCCNC(=N)N)C(=O)N[C@@H](CCCCN)C(=O)N[C@@H](CCCNC(=N)N)C(=O)N[C@]1(C)CCCCCC/C=C\CCC[C@@](C)(C(=O)N[C@@H](CCCNC(=N)N)C(=O)N[C@@H](CCC(=O)O)C(=O)N[C@@H](CC(C)C)C(=O)N[C@H](C(=O)N[C@@H](CCC(=O)O)C(N)=O)C(C)C)NC(=O)[C@H](CCC(N)=O)NC(=O)[C@H](CC(C)C)NC(=O)[C@H](CC(C)C)NC(=O)[C@H](CCCNC(=N)N)NC(=O)[C@H](CCCNC(=N)N)NC(=O)[C@H](CC(C)C)NC1=O)C(C)C | 2.13 | 27.6 | 2.33 | > 50 |  |  | 1.24 | 2.91 | 10.1 | 43 | 4.65 | 46.6 | 1.1 | 2.62 | 27.6 | > 50 | 26.7 | 3.4 | 2.66 | 7.28
O=C(c1ccc2ccccc2c1)c1c(C(F)(F)F)n([O-])c2ccc(Cl)cc2[n+]1=O | 1.64 | 3.05 | 1.69 | 3.2 | 1.75 | 3.34 | 1.64 | 3.09 | 0.195 | 0.375 | 1.26 | 2.6 | 1.36 | 2.65 | 3.21 | 3.02 |  | 1.71 | 1.61 | 
